Values joined by “and” are separate entries in the source; they are usually repeats but may differ in a detail not shown here. Identical values can stand only once. Each block holds one compound with its values, some of them ahead of it.
Key:
[1] = tested on: Plasmodium falciparum blood stage parasites; experiment: Dose-response curves (parasitemia by Hoechst flow cytometry); assay type: cell-based
Method: Synchronous ring-stage or late-stage iRBC at <0.5% parasitemia were brought up to 4% hematocrit in complete culture medium and transferred to a 24-well tissue culture plate in 1 mL aliquots. […] 25 μL were removed from each well at 0, 24, 48, and 72 hours, stained with 100 μL 2 μg/mL Hoechst 33342 for 10 minutes at 37°C, and analyzed by flow cytometry as described above. IC50 values were determined according to parasitemia at 24 hours post-treatment. Parasitemia was defined as the percent of Hoechst-positive RBCs as measured by flow cytometry.

[2] = tested on: Plasmodium falciparum iRBC; experiment: Parasite viability assay (parasitemia by flow cytometry, Giemsa blood smears); assay type: cell-based; settings: for morphology of treated iRBC by blood smear: STAD-2 1 μM, H89 30 μM, light microscopy at 48 hours post-treatment, versus DMSO
Method: 25 μL were removed from each well every 24 hours post-treatment, and samples were stained with Hoechst 33342 and analyzed by flow cytometry. Blood smears were made every 24 hours, fixed with methanol, and stained with Giemsa for analysis by light microscopy. Images were acquired using a Nikon Eclipse E400 microscope fitted with a Nikon Digital Sight DS-5M-L1 camera (Nikon Instruments Inc.).

[3] = tested on: Plasmodium falciparum infected red blood cells (iRBC); experiment: STAD-2 permeability: uptake of FITC-conjugated peptides by flow cytometry; assay type: cell-based
Method: (§2) Synchronous ring-stage or late-stage infected red blood cells (iRBC) and uninfected red blood cells (uRBC) were brought up to 4% hematocrit in complete culture medium. FITC-conjugated peptides were added to a final concentration of 1 μM, and cultures were incubated for 6 hours at 37°C under standard gas conditions. Following incubation, 25 μL cell mixture was removed and treated with 100 μL 2 μg/mL Hoechst 33342 for 10 minutes at 37°C. Cells were subsequently washed once in 1 mL 1X PBS, resuspended in 300 μL 1X PBS, and analyzed for Hoechst and FITC staining on a Beckman Coulter CyAn flow cytometer. 500,000 events were collected at a rate of 15,000–20,000 events per second. Data was analyzed using FlowJo X single cell analysis software (FlowJo LLC).

late-stage iRBC [4] = experiment: Hemolysis (oxyhemoglobin absorbance at 415 nm); assay type: cell-based, Plasmodium falciparum; settings: late-stage iRBC diluted in uRBC, 0 to 8% parasitemia, 1 μM, 6 hours, versus DMSO, n = 4
Method: Synchronous late-stage iRBC were mixed with uRBC in order to achieve a series of samples with stepwise decreasing parasitemia. […] The plate was incubated at 37°C under standard gas conditions for 6 hours. Following incubation, all samples were transferred to Eppendorf tubes and centrifuged at 700 rcf for 5 minutes to pellet cells. 100 μL of supernatant was removed from each tube and transferred to a 96-well, flat-bottom tissue culture plate. Oxyhemoglobin absorbance was measured at 415 nm using a SpectraMax Plus microplate spectrophotometer with SoftMax Pro 5.4 software (Molecular Devices, LLC).

PfPKA-R = experiment: Immunofluorescence assay, colocalization with PKA regulatory subunit; assay type: cell-based, Plasmodium falciparum; settings: late-stage iRBC, 1 μM FITC-conjugated peptide, 2 hours, anti-PfPKA R antibody
Method: (§1) A culture of primarily late-stage iRBC was incubated with STAD-2 or DMSO as described above. Following incubation, 50 μL of cell mixture was removed and washed twice with 1 mL 1X PBS. Cells were then resuspended in 200 μL 4% paraformaldehyde/0.0075% glutaraldehyde and transferred to a CC2 glass chamber slide (Nalge Nunc International). Cells were fixed for 30 minutes at room temperature and gently washed twice with 300 μL 1X PBS. Fixed cells were subsequently permeabilized with 0.1% Triton X-100/PBS for 10 minutes and washed. Cells were then treated with […] sodium borohydride/PBS for 10 minutes to reduce any free aldehyde groups, washed with 1X PBS, and blocked for 1 hour at room temperature with 3% BSA/PBS. Following blocking, cells were brought up in 200 μL primary antibody and left shaking at 4°C overnight. The following morning, cells were washed three times, for 10 minutes each, to remove excess primary antibody and brought up in 200 μL secondary antibody for 1 hour at room temperature. After washing, cells were counterstained with 200 μL 0.5 μg/mL Hoechst 33342 for 3 minutes at room temperature and washed a final time before removing slide chambers, mounting a coverslip with Fluoro-Gel, and sealing. Rat anti-PfPKA-R was generously donated by Gordon Langsley (Institut Cochin) and diluted 1:300 in 3% BSA/PBS. Goat anti-HsPKA-RII (Abcam) was diluted to 10 μg/mL in 3% BSA/PBS. […]

HsPKA-RII = experiment: as above; assay type: cell-based, H. sapiens; settings: late-stage iRBC, 1 μM FITC-conjugated peptide, 2 hours, anti-HsPKA RII antibody
Method: as §1

late-stage iRBC [5] = tested on: late-stage iRBC
Method: Late-stage cultures were brought up to 4% hematocrit in complete culture medium and transferred to a 48-well tissue culture plate at 250 μL per well. Plates were spun at 330 rcf for 5 minutes, the medium was aspirated, and cultures were resuspended in either 250 μL complete culture medium or 200 μM furosemide in complete culture medium for 10 minutes at 37°C. Plates were again spun at 330 rcf, aspirated, and resuspended in 250 μL 1 μM STAD-2, 5% D-Sorbitol, 200 μM furosemide, 130 mM glycerol, 6 μM AgNO3, or a combination of the aforementioned for 10 minutes or 2 hours. Following incubation, 25 μL were removed, stained, and analyzed by flow cytometry as described above. Ten-minute time points served as controls for 5% D-Sorbitol and furosemide activities while effects on STAD-2 uptake were determined using 2-hour time points.

[6] = molecular target: T1, cytoadherence linked asexual protein 3.1, or CLAG3 (Plasmodium falciparum, UniProt O77310); experiment: Immunoprecipitation/mass spectrometry with biotin-conjugated peptide; assay type: binding; settings: 3D7 parasite supernatant, 16 hours at 4°C, streptavidin beads, MS-MS (S2 Table)
T1 construct: 4 X 10^8 3D7 parasites were lysed with cold 0.04% saponin in PBS; endogenous in cells; host or cells: P. falciparum 3D7 parasites (parasite supernatant of lysate)
Method: 4 X 10^8 3D7 parasites were lysed with cold 0.04% saponin in PBS for 10 minutes. The supernatant was, subsequently, separated from the pellet by centrifugation at 4000 rcf for 10 minutes at 4°C. This supernatant consisted of the RBC cytoplasm and parasite exported proteins (termed host supernatant). The pellet consisted of parasite cells; these were further lysed with […]. The soluble fraction (termed parasite supernatant) of the parasite cells was separated from the insoluble fraction by centrifuging the parasite lysate at 4000 rcf for 10 minutes at 4°C. The host supernatant and the parasite supernatant were each incubated with biotin-conjugated STAD-2 or STAD-2 scramble for 16 hours at 4°C. Peptide-protein complexes were precipitated using streptavidin-coupled Dynabeads (Life Technologies). Dynabeads were subsequently washed four times with 1X PBS, and the precipitated peptide-protein complexes were solubilized in SDS-PAGE sample buffer. Proteins were, then, fractionated on 10% SDS-PAGE, excised, and identified by MS-MS (Proteomics and Mass Spectrometry Core Facility, University of Georgia).
Sequences identified by MS-MS were searched against the NCBI non-redundant protein databases for Plasmodium falciparum (NCBI taxonomy #5833) and human (#9606)/Plasmodium (#5820) and analyzed by Mascot. Results from both database searches were cross-referenced and compiled. […]

[7] = tested on: uninfected red blood cells (uRBC); settings: 1 μM FITC-conjugated peptide, 6 hours, 37°C, 4% hematocrit, Hoechst/FITC flow cytometry
Method: as §2

T1 sequence (O77310 25-1417): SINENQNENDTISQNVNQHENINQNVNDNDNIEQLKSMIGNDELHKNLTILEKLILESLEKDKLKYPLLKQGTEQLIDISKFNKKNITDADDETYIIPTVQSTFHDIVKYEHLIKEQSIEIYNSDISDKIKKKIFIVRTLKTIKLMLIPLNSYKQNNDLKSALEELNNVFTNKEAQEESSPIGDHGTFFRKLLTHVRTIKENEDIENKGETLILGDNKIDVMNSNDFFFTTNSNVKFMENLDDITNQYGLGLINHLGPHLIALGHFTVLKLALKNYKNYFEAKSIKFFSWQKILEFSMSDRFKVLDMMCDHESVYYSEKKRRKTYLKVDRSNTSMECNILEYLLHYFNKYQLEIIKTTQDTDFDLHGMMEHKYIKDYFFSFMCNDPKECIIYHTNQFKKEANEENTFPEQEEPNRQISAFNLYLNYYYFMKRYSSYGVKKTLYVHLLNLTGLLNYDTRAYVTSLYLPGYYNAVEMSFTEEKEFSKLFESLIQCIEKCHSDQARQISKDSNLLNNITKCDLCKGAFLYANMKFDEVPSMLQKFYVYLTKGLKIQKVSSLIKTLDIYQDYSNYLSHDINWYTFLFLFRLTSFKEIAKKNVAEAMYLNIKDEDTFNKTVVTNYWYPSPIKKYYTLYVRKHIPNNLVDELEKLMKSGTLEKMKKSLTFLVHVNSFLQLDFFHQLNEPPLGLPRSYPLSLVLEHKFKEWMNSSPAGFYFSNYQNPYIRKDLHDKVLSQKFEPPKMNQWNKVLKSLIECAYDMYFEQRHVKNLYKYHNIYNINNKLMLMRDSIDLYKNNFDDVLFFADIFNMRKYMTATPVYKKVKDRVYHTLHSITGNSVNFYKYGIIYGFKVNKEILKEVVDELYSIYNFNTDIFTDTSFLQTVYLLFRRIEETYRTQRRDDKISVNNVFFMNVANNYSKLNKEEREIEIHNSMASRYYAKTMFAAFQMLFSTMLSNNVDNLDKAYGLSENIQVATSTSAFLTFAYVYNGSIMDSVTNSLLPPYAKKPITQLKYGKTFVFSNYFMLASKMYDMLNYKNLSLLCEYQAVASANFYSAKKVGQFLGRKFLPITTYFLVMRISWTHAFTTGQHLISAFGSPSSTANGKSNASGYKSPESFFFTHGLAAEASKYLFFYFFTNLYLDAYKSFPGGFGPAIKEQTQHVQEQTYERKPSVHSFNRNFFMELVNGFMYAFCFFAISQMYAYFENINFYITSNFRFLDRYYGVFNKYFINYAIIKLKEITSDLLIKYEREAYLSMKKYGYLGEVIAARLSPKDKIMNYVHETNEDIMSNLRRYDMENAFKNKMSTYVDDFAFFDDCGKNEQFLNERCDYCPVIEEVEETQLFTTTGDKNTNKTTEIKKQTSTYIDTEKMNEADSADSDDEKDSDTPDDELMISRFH

IC50 ([1]; late-stage CS2 parasites, serial dilutions 100-0.78 μM, 24 hours, Hoechst flow cytometry, n = 2 (S5 Fig), read-out: H89 in vitro IC50): 30 µM and ~30 µM
Compound: O=S(=O)(NCCNC/C=C/c1ccc(Br)cc1)c1cccc2cnccc12 [H89]
morphology of treated iRBC by blood smear ([2]; late-stage iRBC): clear morphological changes including the notable absence of a digestive vacuole

Compound: CC(C)C[C@H](NC(=O)[C@H](C)NC(=O)[C@]1(C)CCCC=CCCC[C@](C)(NC(=O)[C@H](CO)NC(=O)[C@@H](NC(=O)[C@H](CC(C)C)NC(=O)[C@H](Cc2ccccc2)NC(=O)[C@H](CCCCN)NC(=O)[C@H](C)NC(=O)[C@H](CC(C)C)NC(=O)[C@H](CCCCN)NC(=O)[C@H](CCCCN)NC(=O)CCNC(=S)Nc2ccc3c(c2)C(=O)OC32c3ccc(O)cc3Oc3cc(O)ccc32)C(C)C)C(=O)N[C@@H](C)C(=O)N[C@@H](CC(C)C)C(=O)N[C@@H](CCCCN)C(=O)N1)C(=O)N[C@@H](CCCCN)C(N)=O [STAD-2]
uptake by synchronous ring-stage and late-stage iRBC ([3]; 1 μM FITC-conjugated peptide, 6 hours, flow cytometry, 2way ANOVA p<0.001, n = 3-6): significantly increased uptake
permeability in iRBC ([3]; CS2 iRBC, 1 μM FITC-conjugated peptide, 6 hours, 37°C, 4% hematocrit, Hoechst/FITC flow cytometry): significant permeability
permeability to iRBC among stapled peptides (median fluorescence intensity) ([3]; iRBC, 1 μM stapled FITC-conjugated peptides, 6 hours, flow cytometry, n = 2-6 (Fig 7)): clearly permeable
permeability across parasite strains ([3]; late-stage CS2, Dd2, 3D7, Hb3 iRBC, 1 μM FITC-conjugated peptide, 2 hours, flow cytometry, n = 2 (S1 Fig)): comparable levels of permeability
time to near-maximum levels of uptake ([3]; late-stage iRBC, 1 μM FITC-conjugated peptide for 1, 2, 3 or 6 hours, flow cytometry, n = 3 (S2 Fig)): ≤ 3 h
effect on parasitemia relative to DMSO-treated controls, dose-response ([1]; ring- and late-stage iRBC, 0, 0.5, 1, 2, 5 μM, 24 hours post-treatment, n = 3): concentration-dependent decrease in parasitemia
viability of P. falciparum strains ([2]; late-stage CS2, 3D7, Dd2, Hb3, 1 μM FITC-conjugated peptide, parasitemia at 24, 48, 72 hours, n = 3 (S3 Fig)): reduced viability in CS2, Dd2, and Hb3 strains
parasitemia 6 hours post-treatment ([2]; late-stage iRBC, 1 μM FITC-conjugated peptide, 6 hours, flow cytometry, n = 7 (S4 Fig)): Reduction in parasitemia was evident
morphology of treated iRBC by blood smear ([2]; late-stage iRBC): did not differ morphologically from DMSO controls
parasitemia relative to DMSO controls over 72 hours ([2]; synchronous ring- and late-stage iRBC, 1 μM, flow cytometry every 24 hours for 72 hours, significant by 48 hours (p<0.001), n = 3): significantly decreased parasitemias
iRBC lysis (oxyhemoglobin A415 in medium) (late-stage iRBC [4]): significantly greater than controls
colocalization with PfPKA-R (PfPKA-R): did not definitively colocalize
colocalization with HsPKA-RII (HsPKA-RII): did not definitively colocalize
STAD-2 uptake, co-incubation with AgNO3 (late-stage iRBC [5]; 1 μM STAD-2 + 6 μM AgNO3 (AQP1 inhibitor), 2 hours, flow cytometry, n = 2): no apparent change in STAD-2 uptake
STAD-2 uptake, co-treatment with furosemide alone (late-stage iRBC [5]; 1 μM STAD-2 + 200 μM furosemide (PSAC inhibitor), 2 hours, pre-treatment with medium, flow cytometry, n = 3): no discernible effect on STAD-2 uptake
STAD-2 uptake, co-incubation with glycerol (late-stage iRBC [5]; 1 μM STAD-2 + 130 mM glycerol (AQP3 solute), 2 hours, flow cytometry, n = 2): no apparent change in STAD-2 uptake
STAD-2 uptake, co-incubation with D-Sorbitol (late-stage iRBC [5]; 1 μM STAD-2 + 5% D-Sorbitol (PSAC solute), 2 hours, flow cytometry, n = 2): slight reduction of STAD-2 uptake
STAD-2 uptake, furosemide pre-incubation then co-treatment (late-stage iRBC [5]; 200 μM furosemide 10 minutes pre-incubation, then 1 μM STAD-2 + 200 μM furosemide 2 hours, p = 0.0557, n = 3): consistent but statistically insignificant decrease
association with CLAG3 by IP/MS [6]: showed association
permeability in uRBC [7]: only a nominal amount

Reference: paper PMC4444124, “The Stapled AKAP Disruptor Peptide STAD-2 Displays Antimalarial Activity through a PKA-Independent Mechanism” (PLoS ONE, 2015)
